Reference: patent publication EP3722296B1, “DIHYDRONAPHTHYRIDINES AND RELATED COMPOUNDS USEFUL AS KINASE INHIBITORS FOR THE TREATMENT OF PROLIFERATIVE DISEASES” (Deciphera Pharmaceuticals, LLC, priority 2012, dated 2013)

Legend:
Assay type in all cases: biochemical
[1] = target: c-KIT kinase (Homo sapiens, UniProt P10721); test: c-KIT kinase Assay; parameters: cKIT residues T544-V976; GST (N); TEV cleavage site (internal); purchased deCODE Biostructures; conditions: enzymatic assay, ATP 200 µM; read-out: KIT (wt) IC50
Sequence of c-KIT kinase (P10721 544-976): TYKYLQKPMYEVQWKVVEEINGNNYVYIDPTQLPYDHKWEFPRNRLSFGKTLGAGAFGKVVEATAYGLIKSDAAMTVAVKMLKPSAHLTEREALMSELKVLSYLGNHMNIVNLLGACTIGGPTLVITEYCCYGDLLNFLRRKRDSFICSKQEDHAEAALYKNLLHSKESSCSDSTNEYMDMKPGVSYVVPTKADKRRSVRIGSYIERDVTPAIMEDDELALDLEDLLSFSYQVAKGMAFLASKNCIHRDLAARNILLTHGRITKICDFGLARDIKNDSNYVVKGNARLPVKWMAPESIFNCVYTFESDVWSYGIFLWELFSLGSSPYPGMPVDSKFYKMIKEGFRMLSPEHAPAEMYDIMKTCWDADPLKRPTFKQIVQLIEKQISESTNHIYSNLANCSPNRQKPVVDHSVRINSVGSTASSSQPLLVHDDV
Experimental: In this assay, the oxidation of NADH (measured by decrease in absorbance at 340 nm) was continuously monitored spectrophotometrically. […] The absorption at 340 nm was monitored continuously for 2 hours at 30 °C on Synergy 2 (BioTeK). The reaction rate was calculated using the 0 to 1 h time frame. Percent inhibition was obtained by comparison of reaction rate with that of a control (i.e. with no test compound). IC50 values were calculated from a series of percent inhibition values determined at a range of inhibitor concentrations using software routines as implemented in the GraphPad Prism software package. The protein construct was prepared by deCODE Biostructures using procedures known in the art. The construct contains […] of cKit, an N-terminal tag, a GST-fusion sequence and a TEV cleavage site. [formula]

[2] = target: T1, c-KIT T670I kinase (Homo sapiens, UniProt P10721, T670I); test: c-KIT T670I kinase assay; conditions: enzymatic assay
T1 construct: The construct contains residues T544-V976 of cKit; GST (N); TEV cleavage site (internal); purchased deCODE Biostructures
T1 sequence (P10721 544-976 T670I): as the sequence (P10721 544-976) above, with T127I counted along it
Experimental: (§1) In this assay, the oxidation of NADH (measured by decrease in absorbance at 340 nm) was continuously monitored spectrophotometrically. […] The inhibition reaction was started by mixing serial diluted test compound with the above reaction mixture. The absorption at 340 nm was monitored continuously for 5 hours at 30 °C on Synergy 2 plate reader (BioTech). […] The protein construct was prepared by deCODE Biostructures using procedures known in the art. The construct contains […] of cKit, an N-terminal tag, a GST-fusion sequence and a TEV cleavage site. This construct is identical to Seq ID no. 1 except for the T670I mutation. [formula] [formula]

[3] = target: T2, c-KIT D816V kinase (Homo sapiens, UniProt P10721, D816V); test: c-KIT D816V kinase Assay; conditions: enzymatic assay, ATP 200 uM
T2 construct: residues T544-V976 with N-terminal GST fusion; purchased deCODE Biostructures
T2 sequence (P10721 544-976 D816V): as the sequence (P10721 544-976) above, with D273V counted along it
Experimental: (§2) In this assay, the oxidation of NADH (measured by decrease in absorbance at 340 nm) was continuously monitored spectrophotometrically. […] The inhibition reaction was started by mixing serial diluted test compound with the above reaction mixture. The absorption at 340 nm was monitored continuously for 5 hours at 30 °C on Synergy 2 plate reader (BioTech).
(§3) The protein construct was prepared by deCODE Biostructures using procedures known in the art. The construct contains residues T544-V976 of cKit, an N-terminal tag, a GST-fusion sequence and a TEV cleavage site. This construct is identical to Seq ID no.

[4] = target: T3, c-KIT D816H kinase (Homo sapiens, UniProt P10721, D816H); test: c-KIT D816H Kinase Assay; conditions: enzymatic assay, ATP 200 µM
T3 construct: The construct contains residues T544-V976 of cKit; GST (N); TEV cleavage site (internal); purchased deCODE Biostructures
T3 sequence (P10721 544-976 D816H): as the sequence (P10721 544-976) above, with D273H counted along it
Experimental: as §1, with “6” for “5”, “no.” for “no. 1 except for the T670I mutation. [formula] [formula]”

[5] = target: T4, c-KIT V654A kinase (Homo sapiens, UniProt P10721, V654A); test: c-KIT V654A Kinase Assay; conditions: enzymatic assay, ATP 200 µM
T4 construct: residues T544-V976 with N-terminal GST fusion; purchased deCODE Biostructures
T4 sequence (P10721 544-976 V654A): as the sequence (P10721 544-976) above, with V111A counted along it
Experimental: as §2, with “6” for “5”
as §3

Compound | IC50 [1] [nM] | IC50 [2] [nM] | IC50 [3] [nM] | IC50 [4] [nM] | IC50 [5] [nM]
CNc1cc2c(cn1)cc(-c1cc(NC(=O)Nc3cccc(C#N)c3)ccc1Cl)c(=O)n2C [Example 11, 1-(4-chloro-3-(1-methyl-7-(methylamino)-2-oxo-1,2-dihydro-1,6-naphthyridin-3-yl)phenyl)-3-(3-cyanophenyl)urea] |  |  | > 1000 |  | 
CCn1c(=O)c(-c2cc(NC(=O)Nc3cccc(CN4CCN(C)CC4)c3)c(F)cc2C)cc2cnc(NC)cc21 [Example 82, 1-(5-(1-ethyl-7-(methylamino)-2-oxo-1,2-dihydro-1,6-naphthyridin-3-yl)-2-fluoro-4-methylphenyl)-3-(3-((4-methylpiperazin-1-yl)methyl)phenyl)urea] | 10 to 100 | 100 to 1000 | 100 to 1000 |  | 
CCn1c(=O)c(-c2cc(NC(=O)Nc3ccc(F)c(CN4CCN(C)CC4)c3)c(F)cc2F)cc2cnc(NC)cc21 [Example 90, 1-(5-(1-ethyl-7-(methylamino)-2-oxo-1,2-dihydro-1,6-naphthyridin-3-yl)-2,4-difluorophenyl)-3-(4-fluoro-3-((4-methylpiperazin-1-yl)methyl)phenyl)urea] | < 10 | 10 to 100 | > 1000 | 10 to 100 | 
CNc1cc2c(cn1)cc(-c1cc(NC(=O)Nc3ccccc3)c(F)cc1Br)c(=O)n2C [Example 56, 1-(4-bromo-2-fluoro-5-(1-methyl-7-(methylamino)-2-oxo-1,2-dihydro-1,6-naphthyridin-3-yl)phenyl)-3-phenylurea] | < 10 | 100 to 1000 | 10 to 100 |  | 
CCn1c(=O)c(-c2cc(NC(=O)Nc3cc(F)cc(Cl)c3)c(F)cc2C)cc2cnc(NC)cc21 [Example 69, 1-(3-chloro-5-fluorophenyl)-3-(5-(1-ethyl-7-(methylamino)-2-oxo-1,2-dihydro-1,6-naphthyridin-3-yl)-2-fluoro-4-methylphenyl)urea] | 10 to 100 | 10 to 100 | 100 to 1000 |  | 10 to 100
CCn1c(=O)c(-c2cc(NC(=O)Nc3ccccc3)c(F)cc2C)cc2cnc(NC(=O)N3CC(N(C)C)C3)cc21 [Example 113, 3-(dimethylamino)-N-(1-ethyl-3-(4-fluoro-2-methyl-5-(3-phenylureido)phenyl)-2-oxo-1,2-dihydro-1,6-naphthyridin-7-yl)azetidine-1-carboxamide] | 10 to 100 | 10 to 100 | 10 to 100 | < 10 | 100 to 1000
CCn1c(=O)c(-c2cc(NC(=O)Nc3cc(C)cc(F)c3)c(F)cc2Cl)cc2cnc(NC)cc21 [Example 72, 1-(4-chloro-5-(1-ethyl-7-(methylamino)-2-oxo-1,2-dihydro-1,6-naphthyridin-3-yl)-2-fluorophenyl)-3-(3-fluoro-5-methylphenyl)urea] | < 10 | < 10 | 10 to 100 |  | 100 to 1000
CCn1c(=O)c(-c2cc(NC(=O)Nc3cccc(F)c3)c(F)cc2C)cc2cnc(NC(C)=O)cc21 [Example 78, N-(1-ethyl-3-(4-fluoro-5-(3-(3-fluorophenyl)ureido)-2-methylphenyl)-2-oxo-1,2-dihydro-1,6-naphthyridin-7-yl)acetamide] | < 10 | 10 to 100 | 10 to 100 |  | 
CCn1c(=O)c(-c2cc(NC(=O)Nc3cc(F)cc(Cl)c3)c(F)cc2Cl)cc2cnc(NC)cc21 [Example 71, 1-(4-chloro-5-(1-ethyl-7-(methylamino)-2-oxo-1,2-dihydro-1,6-naphthyridin-3-yl)-2-fluorophenyl)-3-(3-chloro-5-fluorophenyl)urea] | 10 to 100 | 10 to 100 | 100 to 1000 |  | 10 to 100
CCn1c(=O)c(-c2cc(NC(=O)Nc3cccc(CN4CCN(C)CC4)c3)c(F)cc2Br)cc2cnc(NC)cc21 [Example 83, 1-(4-bromo-5-(1-ethyl-7-(methylamino)-2-oxo-1,2-dihydro-1,6-naphthyridin-3-yl)-2-fluorophenyl)-3-(3-((4-methylpiperazin-1-yl)methyl)phenyl)urea] | < 10 | 100 to 1000 | 100 to 1000 |  | 
CCn1c(=O)c(-c2cc(NC(=O)Nc3ccccc3)c(F)cc2I)cc2cnc(NC)cc21 [Example 114, 1-(5-(1-ethyl-7-(methylamino)-2-oxo-1,2-dihydro-1,6-naphthyridin-3-yl)-2-fluoro-4-iodophenyl)-3-phenylurea] | 10 to 100 | > 1000 | 100 to 1000 |  | 
CCn1c(=O)c(-c2cc(NC(=O)Nc3cc(F)ccc3F)c(F)cc2F)cc2cnc(NC)cc21 [Example 62, 1-(2,5-difluorophenyl)-3-(5-(1-ethyl-7-(methylamino)-2-oxo-1,2-dihydro-1,6-naphthyridin-3-yl)-2,4-difluorophenyl)urea] | < 10 | < 10 | 100 to 1000 |  | 

Results, then the compound that gave them:

IC50 [1] [nM] | IC50 [2] [nM] | IC50 [3] [nM] | IC50 [4] [nM] | IC50 [5] [nM] | Compound
10 to 100 | 100 to 1000 | 100 to 1000 |  |  | CCn1c(=O)c(-c2cc(NC(=O)Nc3ccccc3)c(F)cc2Cl)cc2cnc(NCCN(C)C)cc21 [Example 29, 1-(4-chloro-5-(7-(2-(dimethylamino)ethylamino)-1-ethyl-2-oxo-1,2-dihydro-1,6-naphthyridin-3-yl)-2-fluorophenyl)-3-phenylurea]
10 to 100 | 100 to 1000 | 100 to 1000 |  |  | CCn1c(=O)c(-c2cc(NC(=O)Nc3ccccc3)c(F)cc2Br)cc2cnc(NC(=O)CC#N)cc21 [Example 64, N-(3-(2-bromo-4-fluoro-5-(3-phenylureido)phenyl)-1-ethyl-2-oxo-1,2-dihydro-1,6-naphthyridin-7-yl)-2-cyanoacetamide]
< 10 | 10 to 100 | 10 to 100 | < 10 |  | CCn1c(=O)c(-c2cc(NC(=O)Nc3ccccc3)c(F)cc2C)cc2cnc(NC(C)=O)cc21 [Example 80, N-(1-ethyl-3-(4-fluoro-2-methyl-5-(3-phenylureido)phenyl)-2-oxo-1,2-dihydro-1,6-naphthyridin-7-yl)acetamide]
< 10 | 10 to 100 | < 10 |  |  | CCn1c(=O)c(-c2cc(NC(=O)Nc3ccccc3)c(F)cc2Cl)cc2cnc(NC(=O)COC)cc21 [Example 74, N-(3-(2-chloro-4-fluoro-5-(3-phenylureido)phenyl)-1-ethyl-2-oxo-1,2-dihydro-1,6-naphthyridin-7-yl)-2-methoxyacetamide]
10 to 100 | 100 to 1000 | 100 to 1000 |  |  | CCn1c(=O)c(-c2cc(NC(=O)Nc3ccccc3)c(F)cc2Cl)cc2cnc(N[C@@H](C)COC)cc21 [Example 43, (S)-1-(4-chloro-5-(1-ethyl-7-(1-methoxypropan-2-ylamino)-2-oxo-1,2-dihydro-1,6-naphthyridin-3-yl)-2-fluorophenyl)-3-phenylurea]
< 10 | 10 to 100 | 10 to 100 |  |  | CCn1c(=O)c(-c2cc(NC(=O)Nc3ccccc3)c(F)cc2Cl)cc2cnc(NC(=O)CC#N)cc21 [Example 65, N-(3-(2-chloro-4-fluoro-5-(3-phenylureido)phenyl)-1-ethyl-2-oxo-1,2-dihydro-1,6-naphthyridin-7-yl)-2-cyanoacetamide]
< 10 | < 10 | 10 to 100 | < 10 |  | CCn1c(=O)c(-c2cc(NC(=O)Nc3ccccc3)c(F)cc2F)cc2cnc(NC(=O)N(C)C)cc21 [Example 112, 3-(3-(2,4-difluoro-5-(3-phenylureido)phenyl)-1-ethyl-2-oxo-1,2-dihydro-1,6-naphthyridin-7-yl)-1,1-dimethylurea]
